Experimental data reported in patent publication US9108969B2, “Substituted tricyclic acid derivatives as S1P1 receptor agonists useful in the treatment of autoimmune and inflammatory disorders” (Arena Pharmaceuticals, Inc., priority 2008, dated 2015).
Blank lines part the entries; values can stand above or below the molecule they belong to.

Tests used:
[1] = molecular target: T1, human S1P1 receptor (Homo sapiens, UniProt P21453); assay: HTRF assay for direct cAMP measurement (S1P1 agonism); assay type: cell-based; settings: recombinant CHO-K1 cells stably transfected with S1P1; decrease of cAMP
T1 construct: expressed in transfected cells; host or cells: CHO-K1 (ATCC CCL-61), stably transfected
T1 sequence (P21453 whole entry): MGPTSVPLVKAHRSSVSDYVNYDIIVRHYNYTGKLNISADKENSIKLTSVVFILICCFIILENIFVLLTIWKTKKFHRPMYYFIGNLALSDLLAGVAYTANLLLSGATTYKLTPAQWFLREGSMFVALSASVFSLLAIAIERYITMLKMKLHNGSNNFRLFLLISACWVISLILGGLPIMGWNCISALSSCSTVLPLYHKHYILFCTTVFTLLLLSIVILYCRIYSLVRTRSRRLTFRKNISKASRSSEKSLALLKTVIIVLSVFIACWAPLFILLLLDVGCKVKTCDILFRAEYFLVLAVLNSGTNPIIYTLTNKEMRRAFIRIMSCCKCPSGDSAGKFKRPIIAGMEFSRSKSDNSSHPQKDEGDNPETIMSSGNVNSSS
Text: Compounds were screened for agonists of the S1P1 receptor (e.g., human S1P1 receptor) using the HTRF® assay for direct cAMP measurement (Gabriel et al., Assay and Drug Development Technologies, 1:291-303, 2003) and recombinant CHO-K1 cells stably transfected with S1P1. CHO-K1 cells were obtained from ATCC® (Manassas, Va.; Catalog #CCL-61). An agonist of the S1P1 receptor was detected in the HTRF® assay for direct cAMP measurement as a compound which decreased cAMP concentration. HTRF® assay also was used to determine EC50 values for S1P1 receptor agonists.
Principle of the Assay:HTRF® assay kit was purchased from Cisbio-US, Inc. (Bedford, Mass.; Catalog #62AM4PEC). The HTRF® assay supported by the kit is a competitive immunoassay between endogenous cAMP produced by the CHO-K 1 cells and tracer cAMP labeled with the dye d2. The tracer binding is visualized by a monoclonal anti-cAMP antibody labeled with Cryptate. The specific signal (i.e., fluorescence resonance energy transfer, FRET) is inversely proportional to the concentration of unlabeled cAMP in the standard or sample.
Standard Curve:The fluorescence ratio (665 nm/620 nm) of the standards (0.17 to 712 nM cAMP) included in the assay was calculated and used to generate a cAMP standard curve according to the kit manufacturer's instructions. The fluorescence ratio of the samples (test compound or compound buffer) was calculated and used to deduce respective cAMP concentrations by reference to the cAMP standard curve.
Setup of the Assay: The HTRF® assay was carried out using a two-step protocol essentially according to the kit manufacturer's instructions, in 20 μL total volume per well in 384-well plate format (ProxiPlates; PerkinElmer, Fremont, Calif.; catalog #6008280). To each of the experimental wells was transferred 1500 recombinant CHO-K1 cells in 5 μL phosphate buffered saline containing calcium chloride and magnesium chloride (PBS+; Invitrogen, Carlsbad, Calif.; catalog #14040) supplemented with IBMX (250 μM) and rolipram (20 μM) (phosphodiesterase inhibitors; Sigma-Aldrich, St. Louis, Mo.; catalog #15879 and catalog #R6520, respectively), followed by test compound in 5 μL compound buffer (PBS+ supplemented with […] (water-soluble forskolin derivative; SignaGen Laboratories, Gaithersburg, Md.; catalog #PKI-NKH477-010)) or 5 μL compound buffer. The plate was then incubated at room temperature for 1 h. To each well was then added 5 μL cAMP-d2 conjugate in lysis buffer and 5 μL Cryptate conjugate in lysis buffer according to the kit manufacturer's instructions. The plate was then further incubated at room temperature for 1 hour, after which the assay plate was read.
Assay Readout: HTRF® readout was accomplished using a PHERAstar (BMG LABTECH Inc., Durham, N.C.) or EnVision™ (PerkinElmer, Fremont Calif.) microplate reader.

[2] = test system: collagen-induced arthritis; assay: Collagen-induced arthritis assay; assay type: in vivo, Female Lewis rats; settings: rat, 0.3, 1 and 3 mg/kg p.o. q.d. day 0 through day 16, FIG. 14
Protocol: Female Lewis rats were used in this study. Acclimated animals were anesthetized with isoflurane and given the first collagen injection (day 0). On day 6, they were anesthetized again for the second collagen injection. Collagen was prepared by making a 4 mg/mL solution in 0.01 N acetic acid. Equal volumes of collagen and incomplete Freund's adjuvant were emulsified by hand mixing until a bead of this material held its form when placed in water. Each animal received 300 μL of the mixture each time, spread over 3 subcutaneous sites on the back.
Treatment (p.o., q.d., 5 mL/kg dosing volume) began on day 0 and continued through day 16 with vehicle or compounds given at 24 h intervals. Rats were weighed on days 0, 3, 6 and 9 through 17 and caliper measurements of the ankles taken on days 9 through 17.
The second enantiomer isolated after resolution of compound 12 by HPLC (retention time: 18 min per the conditions reported in Example 1.3), was dosed at 0.3, 1 and 3 mg/kg.

[3] = test system: peripheral blood lymphocyte (PBL) count; assay: Rat peripheral lymphocyte lowering (PLL) assay; assay type: in vivo, Male Sprague-Dawley rats; settings: 1 mg/kg intravenous dose, 5 h post-dose, FIG. 12 and 13
Protocol: Animals: Male Sprague-Dawley rats (Charles River Laboratories, Hollister, Calif.) were housed and maintained in humidity (40 to 60%) and temperature (68 to 72° F.) controlled facility on a 12 h:12 h light/dark cycle (lights on at 6:30 am) with free access to food (Harlan Teklad, Orange, Calif., Rodent Diet 8604) and water. Rats were allowed (approximately) one week of habituation to the animal facility before testing.
PLL Assay: Rats were given a 1 mg/kg intravenous dose of the first enantiomer isolated after resolution of compound 12 by HPLC (retention time: 15 min per the conditions reported in Example 1.3), or dosing vehicle (40% hydroxypropyl-cyclodextrin (HPCD)) in a total volume of 1 mL/kg. Peripheral blood samples were collected at 5 h post-dose. Blood was collected via indwelling catheter. A complete cell count (CBC), including lymphocyte count, was obtained using a CELL-DYN® 3700 (Abbott Laboratories, Abbott Park, Ill.) instrument. Results are presented in FIG. 12, in which peripheral blood lymphocyte (PBL) count is shown for the 5 hour group.
Similarly, rats were given a 1 mg/kg intravenous dose of the second enantiomer isolated after resolution of compound 12 by HPLC (retention time: 18 min per the conditions reported in Example 1.3), or dosing vehicle (40% hydroxypropyl-cyclodextrin (HPCD)) in a total volume of 1 mL/kg. […]

[4] = test system: peripheral lymphocytes; settings: Hale et al. 2004; cited from earlier work
[5] = test system: experimental autoimmune uveoretinitis; settings: short-term high dose; cited from earlier work
[6] = test system: experimental autoimmune myasthenia gravis (EAMG); settings: prophylactic oral administration, 1 mg/kg, three times a week, C57BL/6 mice; cited from earlier work
[7] = test system: multiple sclerosis; settings: patients with multiple sclerosis, Phase II; cited from earlier work
[8] = attributed to agonism of the S1P3 receptor; cited from earlier work
[9] = test system: VEGF-induced vascular permeability; settings: mice, oral administration; cited from earlier work
[10] = test system: ovariectomy-induced osteoporosis; settings: mice; cited from earlier work
[11] = test system: contact hypersensitivity (CHS); settings: murine; cited from earlier work
[12] = test system: spared nerve injury model; settings: cited from earlier work
[13] = test system: peripheral blood lymphocyte (PBL) count; assay: Mouse peripheral lymphocyte lowering (PLL) assay; assay type: in vivo, Male BALB/c mice; settings: oral dose, 5 hours post-dose, FIG. 11
Protocol: Animals: Male BALB/c mice (Charles River Laboratories, Wilmington, Mass.) were housed four per cage and maintained in a humidity-controlled (40 to 60%) and temperature-controlled (68 to 72° F.) facility on a 12 h:12 h light/dark cycle (lights on at 6:30 am) with free access to food (Harlan Teklad, Orange, Calif., Rodent Diet 8604) and water. Mice were allowed one week of habituation to the animal facility before testing.
PLL Assay: Mice were given an oral dose of Compound 2 or dosing vehicle (0.5% methylcellulose) in a total volume of 10 mL/kg. Peripheral blood samples were collected at 5 hours post-dose. The mice were anesthetized with isoflurane and blood was collected via cardiac puncture. A complete cell count (CBC), including lymphocyte count, was obtained using a CELL-DYN® 3700 (Abbott Laboratories, Abbott Park, Ill.) instrument. Results are presented in FIG. 11, in which peripheral blood lymphocyte (PBL) count is shown for the 5 hour group.

Compound: CC(C)Oc1ccc(COc2ccc3c(c2)cc2n3CCC2CC(=O)O)cc1C#N (centres unmarked) [Compound 6, 2-(7-(3-cyano-4-isopropoxybenzyloxy)-2,3-dihydro-1H-pyrrolo[1,2-a]indol-1-yl)acetic acid]
EC50 [1]: 0.239 nM

Compound: O=C(O)CC1CCn2c1cc1cc(OCc3ccc(C4CCCC4)c(C(F)(F)F)c3)ccc12 (stereo not drawn) [second enantiomer isolated after resolution of compound 12 by HPLC, 2-(7-(4-cyclopentyl-3-(trifluoromethyl)benzyloxy)-2,3-dihydro-1H-pyrrolo[1,2-a]indol-1-yl)acetic acid]
reduction of mean ankle diameter compared to vehicle [2]: exhibited activity for reducing mean ankle diameter

Compound: O=C(O)CC1CCn2c1cc1cc(OCc3ccc(C4CCCC4)c(C(F)(F)F)c3)ccc12 (stereo not drawn) [first enantiomer isolated after resolution of compound 12 by HPLC, 2-(7-(4-cyclopentyl-3-(trifluoromethyl)benzyloxy)-2,3-dihydro-1H-pyrrolo[1,2-a]indol-1-yl)acetic acid]
peripheral blood lymphocyte (PBL) lowering compared to vehicle [3]: exhibited activity for inducing PBL lowering (lymphopenia)

Compound: CCCCCCCCc1ccc(CCC(N)(CO)CO)cc1 [FTY720]
induction of lymphopenia (peripheral lymphocyte lowering) [4]: rapidly and reversibly induce lymphopenia
ocular infiltrates [5]: rapidly reduced ocular infiltrates
development of EAMG [6]: completely prevented the development of experimental autoimmune myasthenia gravis
MRI lesions and clinical disease activity [7]: reduce the number of lesions detected by magnetic resonance imaging (MRI) and clinical disease activity
adverse event in clinical trials [8]: transient asymptomatic bradycardia
VEGF-induced vascular permeability [9]: potently blocked VEGF-induced vascular permeability
ovariectomy-induced osteoporosis [10]: relieved ovariectomy-induced osteoporosis
initiation of contact hypersensitivity [11]: impair initiation of murine contact hypersensitivity
nociceptive behavior [12]: reduce the nociceptive behavior

Compound: CC(C)Cc1ccc(COc2ccc3c(c2)cc2n3CCC2CC(=O)O)cc1C(F)(F)F (centres unmarked) [Compound 4, 2-(7-(4-isobutyl-3-(trifluoromethyl)benzyloxy)-2,3-dihydro-1H-pyrrolo[1,2-a]indol-1-yl)acetic acid]
EC50 [1]: 0.321 nM

Compound: N#Cc1cc(COc2ccc3c(c2)cc2n3CCC2CC(=O)O)cc(OC(F)(F)F)c1 (centres unmarked) [Compound 2, 2-(7-(3-cyano-5-(trifluoromethoxy)benzyloxy)-2,3-dihydro-1H-pyrrolo[1,2-a]indol-1-yl)acetic acid]
peripheral blood lymphocyte (PBL) lowering compared to vehicle [13]: exhibited activity for inducing PBL lowering (lymphopenia)

Other lines, results leading:

EC50 [1]: 5.2 nM
Compound: O=C(O)CC1CCn2c1c(C1CCC1)c1cc(OCc3ccc(C4CCCC4)c(C(F)(F)F)c3)ccc12 (centres unmarked) [Compound 11, 2-(9-cyclobutyl-7-(4-cyclopentyl-3-(trifluoromethyl)benzyloxy)-2,3-dihydro-1H-pyrrolo[1,2-a]indol-1-yl)acetic acid]

EC50 [1]: 6.3 nM
Compound: O=C(O)CC1CCn2c1nc1cc(OCc3ccc(C4CCCC4)c(C(F)(F)F)c3)ccc12 (centres unmarked) [Compound 14, 2-(6-(4-cyclopentyl-3-(trifluoromethyl)benzyloxy)-2,3-dihydro-1H-benzo[d]pyrrolo[1,2-a]imidazol-3-yl)acetic acid]

EC50 [1]: 0.011 nM
Compound: O=C(O)CC1CCn2c1c(I)c1cc(OCc3ccc(C4CCCC4)c(C(F)(F)F)c3)ccc12 (centres unmarked) [Compound 10, 2-(7-(4-cyclopentyl-3-(trifluoromethyl)benzyloxy)-9-iodo-2,3-dihydro-1H-pyrrolo[1,2-a]indol-1-yl)acetic acid]
